Test system: R/R non-GCB DLBCL
Test: Compound 1 monotherapy in patients with R/R non-GCB DLBCL
Type: in vivo, human
Conditions: for unadjusted ORR: non-GCB DLBCL
Protocol: A total of 121 patients with R/R non-GCB DLBCL were recruited in four Compound 1 treatment studies that were conducted at a similar time period. Two of the four studies were Compound 1 monotherapy (n=79) and two were Compound 1 combined with an anti-CD20 antibody therapy (n=42). Similar inclusion and exclusion criteria and response evaluation criteria were used across all studies. Fifty-six non-GCB patients were further subtyped by gene expression profiling (GEP) using the HTG EdgeSeq DLBCL Cell of Origin Assay. The expression of approximately 90 lymphoma-associated genes from the HTG GEP assay were analyzed by R package limma for correlation with response to Compound 1 treatment. Seventy-seven patient samples were tested by next-generation sequencing (NGS) with a panel of genes. Chi-square test was used to evaluate the correlation between mutations and the objective response rate (ORR).
Monotherapy schedule 1: Compound 1 was administered orally every day at 160 mg twice daily (BID) in 28-day cycles in patients with R/R non-GCB DLBCL.
Monotherapy schedule 2: Compound 1 was administered orally every day in each cycle at 160 mg BID in 28-day cycles in patients with R/R non-GCB DLBCL.
79 patients with non-GCB DLBCL were subjected to Compound 1 monotherapies (Monotherapy Schedule 1 or 2).

[1] = monotherapy 160 BID Schedule 1, ABC Subtype of DLBCL Patients
[2] = monotherapy 160 BID Schedule 1, CD79B ITAM_Mut
[3] = monotherapy 160 BID Schedule 1, CD79B ITAM_WT
[4] = monotherapy 160 BID Schedule 1, CD79B_Mut
[5] = monotherapy 160 BID Schedule 1, CD79B_WT
[6] = monotherapy 160 BID Schedule 1, MYD88_L265P
[7] = monotherapy 160 BID Schedule 1, MYD88_WT
[8] = monotherapy 160 BID Schedule 1, NOTCH1_Mut
[9] = monotherapy 160 BID Schedule 1, NOTCH1_WT
[10] = monotherapy 160 BID Schedule 1, Non-GCB DLBCL Patients
[11] = monotherapy 160 BID Schedule 1, Non-GCB DLBCL Patients with Sequence Available
[12] = monotherapy 160 BID Schedule 1, Patients with Sequence Available
[13] = monotherapy 160 BID Schedule 2, ABC Subtype of DLBCL Patients
[14] = monotherapy 160 BID Schedule 2, CD79B ITAM_Mut
[15] = monotherapy 160 BID Schedule 2, CD79B ITAM_WT
[16] = monotherapy 160 BID Schedule 2, CD79B_Mut
[17] = monotherapy 160 BID Schedule 2, CD79B_WT
[18] = monotherapy 160 BID Schedule 2, MYD88_L265P
[19] = monotherapy 160 BID Schedule 2, MYD88_L265P/CD79B_Mut
[20] = monotherapy 160 BID Schedule 2, MYD88_WT
[21] = monotherapy 160 BID Schedule 2, NOTCH1_Mut
[22] = monotherapy 160 BID Schedule 2, NOTCH1_WT
[23] = monotherapy 160 BID Schedule 2, Non-GCB DLBCL Patients
[24] = monotherapy 160 BID Schedule 2, Non-GCB DLBCL Patients with Sequence Available
[25] = monotherapy 160 BID Schedule 2, Other (not MYD88_L265P/CD79B_Mut)
[26] = monotherapy 160 BID Schedule 2, Patients with Sequence Available
[27] = monotherapy Total (N = 79), ABC Subtype of DLBCL Patients
[28] = monotherapy Total (N = 79), CD79B ITAM_Mut
[29] = monotherapy Total (N = 79), CD79B ITAM_WT
[30] = monotherapy Total (N = 79), CD79B_Mut
[31] = monotherapy Total (N = 79), CD79B_WT
[32] = monotherapy Total (N = 79), MYD88_L265P
[33] = monotherapy Total (N = 79), MYD88_L265P/CD79B_Mut
[34] = monotherapy Total (N = 79), MYD88_WT
[35] = monotherapy Total (N = 79), NOTCH1_Mut
[36] = monotherapy Total (N = 79), NOTCH1_WT
[37] = monotherapy Total (N = 79), Non-GCB DLBCL Patients
[38] = monotherapy Total (N = 79), Non-GCB DLBCL Patients with Sequence Available
[39] = monotherapy Total (N = 79), Other (not MYD88_L265P/CD79B_Mut)
[40] = monotherapy Total (N = 79), Patients with Sequence Available

C=CC(=O)N1CCC([C@@H]2CCNc3c(C(N)=O)c(-c4ccc(Oc5ccccc5)cc4)nn32)CC1 [Compound 1, (S)-7-(1-acryloylpiperidin-4-yl)-2-(4-phenoxyphenyl)-4,5,6,7-tetra-hydropyrazolo[1,5-a]pyrimidine-3-carboxamide]
ORR (GEP-confirmed activated B-cell DLBCL, first of the two monotherapies (Schedule 1)): 53.8%
ORR (GEP-confirmed activated B-cell DLBCL, second of the two monotherapies (Schedule 2)): 36%
ORR [1]: 53.8
Response/Patient [1]: 7/13
ORR [2]: 100.0
Response/Patient [2]: 2/2
Difference in ORR (95% CI) (monotherapy 160 BID Schedule 1, CD79B ITAM_Mut vs CD79B ITAM_WT): 50.0
ORR [3]: 50.0
Response/Patient [3]: 4/8
ORR [4]: 75.0
Response/Patient [4]: 3/4
Difference in ORR (95% CI) (monotherapy 160 BID Schedule 1, CD79B_Mut vs CD79B_WT): 25.0
ORR [5]: 50.0
Response/Patient [5]: 3/6
ORR [6]: 0.0
Response/Patient [6]: 0/1
Difference in ORR (95% CI) (monotherapy 160 BID Schedule 1, MYD88_L265P vs MYD88_WT): −66.7
ORR [7]: 66.7
Response/Patient [7]: 6/9
ORR [8]: 100.0
Response/Patient [8]: 1/1
Difference in ORR (95% CI) (monotherapy 160 BID Schedule 1, NOTCH1_Mut vs NOTCH1_WT): 44.4
ORR [9]: 55.6
Response/Patient [9]: 5/9
ORR [10]: 31.6
Response/Patient [10]: 12/38
ORR [11]: 60.0
Response/Patient [11]: 6/10
ORR (monotherapy 160 BID Schedule 1, Other (not MYD88_L265P/CD79B_Mut)): 60.0
ORR [12]: 63.6
Response/Patient [12]: 7/11
ORR [13]: 36.0
Response/Patients [13]: 9/25
ORR [14]: 46.2
Response/Patients [14]: 6/13
Difference in ORR (95% CI) (monotherapy 160 BID Schedule 2, CD79B ITAM_Mut vs CD79B ITAM_WT): 17.6
ORR [15]: 28.6
Response/Patients [15]: 6/21
ORR [16]: 46.2
Response/Patients [16]: 6/13
Difference in ORR (95% CI) (monotherapy 160 BID Schedule 2, CD79B_Mut vs CD79B_WT): 17.6
ORR [17]: 28.6
Response/Patients [17]: 6/21
ORR [18]: 40.0
Response/Patients [18]: 4/10
Difference in ORR (95% CI) (monotherapy 160 BID Schedule 2, MYD88_L265P vs MYD88_WT): 6.7
ORR [19]: 50.0
Response/Patients [19]: 3/6
Difference in ORR (95% CI) (monotherapy 160 BID Schedule 2, MYD88_L265P/CD79B_Mut vs Other): 17.9
ORR [20]: 33.3
Response/Patients [20]: 8/24
ORR [21]: 100.0
Response/Patients [21]: 2/2
Difference in ORR (95% CI) (monotherapy 160 BID Schedule 2, NOTCH1_Mut vs NOTCH1_WT): 68.8
ORR [22]: 31.3
Response/Patients [22]: 10/32
ORR [23]: 29.3
Response/Patients [23]: 12/41
ORR [24]: 35.3
Response/Patients [24]: 12/34
ORR [25]: 32.1
Response/Patients [25]: 9/28
ORR [26]: 35.3
Response/Patients [26]: 12/34
ORR [27]: 42.1
Response/Patients [27]: 16/38
ORR [28]: 53.3
Response/Patients [28]: 8/15
Difference in ORR (95% CI) (monotherapy Total (N = 79), CD79B ITAM_Mut vs CD79B ITAM_WT): 18.9
ORR [29]: 34.5
Response/Patients [29]: 10/29
ORR [30]: 52.9
Response/Patients [30]: 9/17
Difference in ORR (95% CI) (monotherapy Total (N = 79), CD79B_Mut vs CD79B_WT): 19.6
ORR [31]: 33.3
Response/Patients [31]: 9/27
ORR [32]: 36.4
Response/Patients [32]: 4/11
Difference in ORR (95% CI) (monotherapy Total (N = 79), MYD88_L265P vs MYD88_WT): −6.1
ORR [33]: 50.0
Response/Patients [33]: 3/6
Difference in ORR (95% CI) (monotherapy Total (N = 79), MYD88_L265P/CD79B_Mut vs Other): 10.5
ORR [34]: 42.4
Response/Patients [34]: 14/33
ORR [35]: 100.0
Response/Patients [35]: 3/3
Difference in ORR (95% CI) (monotherapy Total (N = 79), NOTCH1_Mut vs NOTCH1_WT): 63.4
ORR [36]: 36.6
Response/Patients [36]: 15/41
ORR [37]: 30.4
Response/Patients [37]: 24/79
ORR [38]: 40.9
Response/Patients [38]: 18/44
ORR [39]: 39.5
Response/Patients [39]: 15/38
ORR [40]: 42.2
Response/Patients [40]: 19/45
unadjusted ORR (first of the two monotherapies (Schedule 1)): 31.6%
unadjusted ORR (second of the two monotherapies (Schedule 2)): 29.3%
ORR (two monotherapies, NOTCH1 mutant (n=3)): 100%
ORR (two monotherapies, non-GCB DLBCL with CD79B mutations (n=17)): 52.9%
ORR (two monotherapies, other population (without CD79B mutations)): 33.3%
ORR (two monotherapies, patients without NOTCH1 mutation): 36.6%
